According to US20250177566A1, “USE OF CHEMICAL EPIGENETIC MODIFIERS TO MODULATE GENE EXPRESSION” (The University of North Carolina at Chapel Hill, priority 2022, published 2025):

System: MYOD1
Assay: MYOD1 mRNA activation in HEK293T (dCas9, MS2-FKBP*x2), qRT-PCR
Assay type: cell-based, human
Conditions: FIG. 7E; for fold change, MYOD1 mRNA (MYOD1 gRNA vs NT gRNA): 24 hrs
Protocol: HCT116 cells were stably infected with dCas9 and MS2-FKBP*x2 via lentivirus. NT gRNA was transfected and the change of CXCR4 mRNA expression were quantified with RNA extraction and qRT-PCR, normalized to GAPDH. After 24 hrs of SLF*-CEMa exposure, the cells were separated into three groups: 1) continuous SLF*-CEMa treatment; 2) washout with media; and 3) washout with 20 μM AP1867 added. RNA extraction was performed at 12, 24, 48, and 72 hrs time points. […] HCT116 cells were stably expressing dCas9 and MS2-FKBP*x2 constructs and transfected with CXCR4 gRNA or NT gRNA. APC CXCR4 antibody was used in flow cytometry at referred time points. […] HEK293T cells were lentivirally infected with dCas9 and MS2-FKBP*x2 constructs and transfected with MYOD1 gRNA or NT gRNA. RNA extraction and qRT-PCR were performed after 24 hrs of CEM207 treatment in 5 nM, 25 nM, and 50 nM concentrations along with no chemical treatment as the control group. MYOD1 mRNA expression level was normalized to GAPDH. […] Stable dCas9 and MS2-FKBP*x2 expressing HEK293T cells were transfected with CXCR4 gRNA and NT gRNA. RNA extraction and qRT-PCR were performed after 24 hrs of 25 nM CEM207 or no chemical treatment. CXCR4 mRNA expression level was normalized to GAPDH. […] Stable dCas9 and MS2-FKBP*x2 expressing HEK293T cells were transfected with IL1RN gRNA and NT gRNA. RNA extraction and qRT-PCR were performed after 24 hrs of 25 nM CEM207 treatment. IL1RN mRNA expression level was normalized to GAPDH. […] Stable dCas9 and MS2-FKBP*x2 expressing HEK293T cells were transfected with ASLC1 gRNA and NT gRNA. RNA extraction and qRT-PCR were performed after 24 hrs of 25 nM CEM207 treatment. IL1RN mRNA expression level was normalized to GAPDH. […] Error bars represent the standard deviation.
As a gene-specific activation technology, it is important to investigate the universal applicability of SLF*-CEMa and evaluate their ability to activate variable genes in different tissue cells. To do so, HEK293T cells stably expressing dCas9 and MS2-FKBP*x2 constructs via lentiviral infection were established and benchmarked for the gene activation level of MYOD1, CXCR4, and IL1RN after CEM207 treatment for 24 hours. HEK293T cells transfected with MYOD1 gRNA were treated with 5 nM, 25 nM, or 50 nM of CEM207. RNA extraction and qRT-PCR were preformed after 24 hours. […] As a result, another gene was tested in the […] cell line. Stably infected cells were transfected with ASCL1 gRNA and mRNA expression was measured by qRT-PCR.
RNA extraction and qRT-PCR. All RNA extraction experiments were conducted in 12-well plate format. Culturing medium was removed, and cells were washed with 1×PBS, following with 0.05% trypsin to disassociate. […] The primer sets used in quantifying each gene can be found in Table 4.

## CC[C@H](C(=O)N1CCCC[C@H]1C(=O)O[C@H](CCc1ccc(OC)c(OC)c1)c1cccc(OCC(=O)NCCOCCOCCNC(=O)C[C@@H]2N=C(c3ccc(Cl)cc3)c3c(sc(C)c3C)-n3c(C)nnc32)c1)c1cc(OC)c(OC)c(OC)c1 [CEM207, (R)-1-(3-((14-((S)-4-(4-Chlorophenyl)-2,3,9-trimethyl-6H-thieno[3,2-f][1,2,4]triazolo[4,3-a][1,4]diazepin-6-yl)-2,13-dioxo-6,9-dioxa-3,12-diazatetradecyl)oxy)phenyl)-3-(3,4-dimethoxyphenyl) propyl(S)-1-((S)-2-(3,4,5-trimethoxyphenyl)butanoyl) piperidine-2-carboxylate]
5 nM, 25 nM, or 50 nM, 24 hours
  MYOD1 mRNA expression: dose-dependent increase
5 nM
  fold change, MYOD1 mRNA (MYOD1 gRNA vs NT gRNA): 5.4 fold
25 nM
  fold change, MYOD1 mRNA (MYOD1 gRNA vs NT gRNA): 10.8 fold
50 nM
  fold change, MYOD1 mRNA (MYOD1 gRNA vs NT gRNA): 10.9 fold
